The text below walks through data of a melting point compilation (Tetko et al.).

As usually defined, the melting point is the temperature of the solid-liquid transition.

With `Cc1cc2sc(N)nc2s1`, the melting point lay in the range of 117 to 119 °C.
With `CC(C)C(NC(=O)c1ccccc1)c1nn[nH]n1` (stereo unspecified) the figure was 176 to 178 °C.
In turn, `O=C(O)c1ccc(-c2ccc(Cl)cc2)cc1F` displayed a melting point of 251 to 253 °C.
With `CC(Cl)C(=O)NC1CCCCC1` (stereo unspecified) the figure was 98 to 100 °C.
`O=S1(=O)CCCC(O)C1` (stereo unspecified) displayed a melting point of 99 to 101 °C.
With `O=C(CCl)NCCc1ccsc1` the figure was 75 to 77 °C.
With `COCCN(C(C)=O)c1nc(CCl)cs1` the figure was 98 to 100 °C; with `N#CCc1nc(-c2ccccc2)n[nH]1`, 165 to 167 °C; with `Cc1cc(C(=O)O)nn1-c1cccc(Cl)c1`, 190 to 192 °C.
`C#CCN1C(=O)C(=O)c2cc(Br)ccc21` gave a melting point of 164 to 166 °C.
`CC1(C2CCCCC2)NC(=O)NC1=O` (stereo unspecified) returned a melting point of 113 to 115 °C.
With `Cc1ccc(-n2nc(C(=O)O)c3c2CCCC3)cc1F`, the melting point is 208 to 210 °C.
`CN(C)c1nccc(C=O)n1` displayed a melting point of 50 to 52 °C.
Under `COC(=O)C=Cc1ccc([N+](=O)[O-])cc1` stands 161 to 163 °C; under `Cc1cccc(-n2nc(C(C)(C)C)cc2N)c1`, 90 to 92 °C.
In turn, `Cc1c(N)cc(C(=O)NC(C)c2ccccc2)cc1F` (stereo unspecified) came in with a melting point of 96 to 98 °C.
With `CC(Cl)C(=O)Nc1ccc([N+](=O)[O-])cc1` (stereo unspecified) the figure was 138 to 140 °C; with `OC1COc2ccc(Br)cc21` (stereo unspecified), 79 to 81 °C; with `Cc1ccc(N2C(=O)C=CC2=O)cc1`, 151 to 153 °C.
Under `Cc1ccccc1-c1nn(-c2ccccc2)cc1C(=O)O` stands 177 to 179 °C; under `CCC(NC(=O)c1ccccc1)C(N)=S` (stereo unspecified), 244 to 246 °C.
In the case of `Cc1nc(S)c2c(C)c(C)sc2n1`, the melting point is 193 to 195 °C.
Under `Nc1ccc(F)cc1Nc1ccccc1F` stands 53 to 55 °C.
Under `CC(=O)N(c1nc(CCl)cs1)c1ccccc1F` stands 150 to 155 °C.
In turn, `Cc1cccn2c(=O)cc(CCl)nc12` displayed a melting point of 110 to 112 °C.
Under `Cc1nn(C)c(C)c1S(N)(=O)=O` stands 213 to 215 °C; under `OC(CNCc1ccccc1)c1cccs1` (stereo unspecified), 95 to 97 °C.
`N#Cc1cc2c(nc1N)CCC2` came in with a melting point of 205 to 207 °C.
`O=C(O)c1cnoc1` returned a melting point of 99 to 101 °C.
Regarding `O=C1OCCN1c1ccc(Cl)c([N+](=O)[O-])c1`, the melting point lay within 163 to 165 °C.
For the molecule `COc1nc(C)cc(=O)[nH]1`, the melting point was 199 to 201 °C.
Molecule `Cc1cc(Cl)c(Cl)cc1[N+](=O)[O-]` gave a melting point of 57 to 59 °C.
Under `ON=C1CCN(Cc2ccccc2)CC1` stands 126 to 128 °C.
With `CCN(CC)C(=O)Cc1ccc(N)cc1` the figure was 87 to 89 °C; with `NC(=O)c1cc(C(F)(F)F)ccc1N1CCCC1`, 207 to 209 °C; with `Cn1c(-c2ccccc2)c(C(=O)CC#N)c2ccccc21`, 155 to 157 °C.
On to `Cn1ncc2c(=O)[nH]c(NN)nc21`, for which the melting point fell in the range of 285 to 287 °C.
`CN(C(=O)CC#N)C1CCCCC1` yielded a melting point of 88 to 90 °C.
In turn, `O=C(O)C1CCc2nncn2C1` (stereo unspecified) displayed a melting point of 279 to 281 °C.
In the case of `O=C(O)c1c2c(cc([N+](=O)[O-])c1[N+](=O)[O-])OCCO2`, the melting point was 210 to 212 °C.
With `CSc1ccc(CNc2ccc3[nH]c(C)nc3c2)cc1` the figure was 172 to 174 °C; with `O=C(O)CCc1nnc(-c2ccccc2)o1`, 144 to 146 °C; with `O=C1Nc2ccc(S(=O)(=O)Cl)c3cccc1c23`, 197 to 199 °C.
For `O=C(O)C1CC1c1ccccc1OC(F)(F)F` (stereo unspecified), the melting point lay in the range of 94 to 96 °C.
`CCOCCOc1ccc(Br)cc1/C=C/C(=O)O`: the melting point fell in the range of 109 to 111 °C.
Under `CNS(=O)(=O)c1cc(N)ccc1OC` stands 169 to 171 °C.
With `Brc1ccccc1Oc1cccnn1` the figure was 109 to 111 °C; with `Cc1cc(C(=O)O)cc(S(N)(=O)=O)c1C`, 266 to 268 °C; with `Cc1noc(-c2ccc([N+](=O)[O-])c(C)c2)n1`, 132 to 134 °C.
With `Cc1n[nH]c(C(F)(F)Cl)c1C(=O)O` the figure was 260 to 262 °C; with `Oc1cccc(Oc2ccncc2)c1`, 119 to 121 °C.
In the case of `CCc1ccccc1NC(=O)CN1CCNCC1`, the melting point is 88 to 90 °C.
Turning to `C#CC#CCCCCCC(=O)O`, the melting point lay in the range of 35 to 37 °C.
With `NNC(=O)NCCc1cccs1` the figure was 90 to 92 °C.
Under `Clc1sc2ccccc2c1Cl` stands 53 to 55 °C; under `NNc1ccc(-n2cccn2)nn1`, 194 to 196 °C; under `COC(=O)c1ccc(S(=O)(=O)Cl)c([N+](=O)[O-])c1`, 100 to 102 °C.
`O=C(O)c1nn(-c2cc(C(F)(F)F)ccc2Cl)c2c1CCC2` showed a melting point of 229 to 231 °C.
With `Cc1ccc(-n2nc(-c3ccccc3)cc2N)c(C)c1` the figure was 126 to 128 °C; with `O=C(O)c1cc([N+](=O)[O-])ccc1SCCO`, 163 to 165 °C.
Molecule `CN(C=O)c1ccc(C(=O)CCl)cc1` yielded a melting point of 96 to 98 °C.
Under `CCCC(N)c1nnn[nH]1` (stereo unspecified) stands 277 to 279 °C.
Under `O=C(O)c1ccn(-c2ccc(Cl)c(Cl)c2)n1` stands 191 to 193 °C.
With `COc1ccc(C(C)=O)cc1CS(=O)CC(=O)O` (stereo unspecified) the figure was 93 to 95 °C; with `CCOc1cc(N)ccc1OC`, 77 to 79 °C.
In the case of `COC(=O)c1c(N)sc2c1CCC2`, the melting point lay within 149 to 151 °C.
With `COC(=O)c1cc([N+](=O)[O-])c(Br)cc1F` the figure was 72 to 74 °C.
Consider `NCCCN1C(=O)NC2(CCCC2)C1=O`, for which the melting point lay in the range of 129 to 131 °C.
Molecule `O=C(CCl)NCC1COc2ccccc2O1` (stereo unspecified) returned a melting point of 212 to 214 °C.
As to `CC(=O)c1nnn(-c2cccc(Br)c2)c1C`, the melting point lay within 74 to 76 °C.
With `O=C(O)Cc1csc(Cc2ccccc2)n1` the figure was 128 to 130 °C; with `Nc1nonc1-c1ccccc1`, 96 to 98 °C.
`ClCCc1ncc(-c2ccccc2)o1`: the melting point was 68 to 70 °C.
With `Nc1ccc(-n2nccn2)nc1`, the melting point lay in the range of 82 to 84 °C.
The molecule `CN(C)C(=O)c1cc(Oc2ccc(N)cc2)ccn1` came in with a melting point of 113 to 115 °C.
The molecule `O=C(CCl)c1ccc(N2CCOC2=O)cc1` displayed a melting point of 167 to 169 °C.
Under `CN(Cc1cnn(C)c1)C(=O)CCl` stands 35 to 37 °C; under `O=C(O)c1ccccc1S(=O)(=O)C(F)(F)F`, 107 to 109 °C.
As to `Nc1ccc(S(=O)(=O)N2CCC(Cc3ccccc3)CC2)cc1`, the melting point is 153 to 155 °C.
Under `O=C(O)CCCCc1ccc(Cl)cc1` stands 64 to 66 °C; under `CC(=O)CC(=O)Nc1ccc(C)c(Cl)c1`, 108 to 110 °C.
For the molecule `CNC(C)c1ccc(S(C)=O)cc1` (stereo unspecified), the melting point fell in the range of 52 to 54 °C.
`COC(=O)c1ccc(Cl)cc1S(=O)(=O)Cl`: the melting point was in the range of 63 to 65 °C.
Under `Cc1sc(N)nc1-c1ccc(OC(F)F)cc1` stands 105 to 107 °C.
`Cc1cc2nc(-c3cccc4ncccc34)[nH]c2cc1C`: the melting point lay within 129 to 131 °C.
In the case of `CC(=O)NCc1ccc(C(C)=O)s1`, the melting point lay in the range of 129 to 131 °C.
With `C=CCn1c(S)nc2cc3ccccc3cc2c1=O`, the melting point is 285 to 287 °C.
`Cc1ccccc1C(N)=NO` returned a melting point of 81 to 83 °C.
Under `Nc1cccc2[nH]cnc12` stands 110 to 112 °C.
With `O=c1[nH]cnc2cc(-c3ccc(Cl)cc3)sc12` the figure was 327 to 329 °C; with `Cc1cnc2c(c1)NCCO2`, 109 to 111 °C; with `Cc1ccc(CC(=O)O)c(Cl)c1`, 129 to 131 °C.
Molecule `Brc1cnc2nc3ccccc3n2c1` registered a melting point of 269 to 271 °C.
`O=C(O)C1CCCN(c2ccc(Cl)nn2)C1` (stereo unspecified) yielded a melting point of 179 to 181 °C.
Under `O=C1N[C@H](C(=O)O)CS1` stands 166 to 170 °C; under `O=C(c1ccc(F)cc1)c1ccccc1Cl`, 61 to 63 °C.
For `CC(=O)Nc1ccc(N)nc1`, the melting point lay within 166 to 168 °C.
Under `O=C(O)c1ccc(Cl)c(N2CCCS2(=O)=O)c1` stands 212 to 214 °C; under `O=C(O)c1cc(-c2cc(F)ccc2F)no1`, 187 to 189 °C.
With `CC(=O)Nc1ccc(C)cc1N`, the melting point is 132 to 134 °C.
With `COc1ccc([N+](=O)[O-])cc1NS(=O)(=O)c1cc(C(=O)O)ccc1Cl` the figure was 57 to 59 °C; with `CCC1C(=O)NC(=S)N(c2ccc(Cl)cc2)C1=O` (stereo unspecified), 148 to 150 °C.
For `Nc1cccnc1Nc1ccccc1`, the melting point lay in the range of 135 to 137 °C.
`O=Cc1cc(Br)c(OCc2ccccc2)c(Br)c1` displayed a melting point of 78 to 80 °C.
As for `Cc1cc(C)n2nc(Br)nc2n1`, the melting point was 185 to 187 °C.
Under `Nc1cc(F)cc(S(N)(=O)=O)c1` stands 153 to 155 °C; under `N#Cc1cccc(NN)c1`, 104 to 106 °C; under `COC1(C(=O)O)CCN(C(=O)OC(C)(C)C)CC1`, 96 to 98 °C.
With `O=C(O)CCC(=O)NCC(=O)c1ccccc1F` the figure was 156 to 158 °C; with `Cc1ccc(Cl)c2c1NC(=O)C2=O`, 275 to 277 °C; with `Nc1cccc(S(=O)(=O)Nc2ccccc2Cl)c1`, 110 to 112 °C.
Under `O=C(O)Cc1coc(-c2ccc(Cl)cc2)n1` stands 191 to 193 °C.
The molecule `CCOC(=O)c1ccc(S(=O)(=O)N2CCC(C(=O)O)CC2)o1` displayed a melting point of 170 to 172 °C.
Under `Nc1ccc(CC(F)(F)F)cc1` stands 46 to 48 °C.
In the case of `CC(C)(C)Sc1ccc(C(N)=S)nc1`, the melting point is 129 to 131 °C.
In turn, `CS(=O)(=O)CCCI` returned a melting point of 59 to 61 °C.
Under `CC(C)NC(=O)N1CCC(C(=O)O)CC1` stands 137 to 139 °C; under `COc1ccc(OCc2ccccn2)c(/C=C/C(=O)O)c1`, 177 to 179 °C; under `Nc1oc2ccc(F)cc2c(=O)c1C=O`, 251 to 253 °C.
Under `CC(Cl)C(=O)Nc1cccc([N+](=O)[O-])c1` (stereo unspecified) stands 115 to 117 °C.
Take `Nc1ncc(Cc2ccc(Br)cc2)s1`: the melting point lay in the range of 129 to 131 °C.
